Values after ≈ are worked out from the molar mass of the structure shown. Where a SMILES comes first, the peptide text is derived from it. [ ]: non-standard residue; d: D form.
Assays:
E. coli [1] = test: microbe, parasite or virus in culture; assay type: cell-based, Escherichia coli; conditions: 16 h
Outline: (§1)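 Broth microdilution in MH medium: strains diluted to 2×10^6 CFU were mixed with equal volumes of twofold serial peptide dilutions in MH medium. MIC was taken as the lowest peptide concentration preventing bacterial growth.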

MDREC 1229 [2] = test: microbe, parasite or virus in culture; assay type: cell-based, Escherichia coli
Outline: as §1

MDREC 1238 = assay type: cell-based, Escherichia coli
Outline: as §1

P. aeruginosa = test: microbe, parasite or virus in culture; assay type: cell-based, Pseudomonas aeruginosa
Outline: as §1

MDRAB 12036 = assay type: cell-based, Acinetobacter baumannii
Outline: as §1

S. typhimurium = test: microbe, parasite or virus in culture; assay type: cell-based, Salmonella typhimurium
Outline: as §1

MDRST 8007 = test: Minimal inhibitory concentration (MIC), single agent; assay type: cell-based, Salmonella typhimurium; conditions: agent alone
Outline: as §1

MDRST 8009 = assay type: cell-based, Salmonella typhimurium; conditions: agent alone
Outline: as §1

S. epidermidis = test: microbe, parasite or virus in culture; assay type: cell-based, Staphylococcus epidermidis
Outline: as §1

S. aureus = test: microbe, parasite or virus in culture; assay type: cell-based, Staphylococcus aureus
Outline: as §1

MRSA 3114 = assay type: cell-based, Staphylococcus aureus; conditions: 3114
Outline: as §1

MRSA 3126 = assay type: cell-based, Staphylococcus aureus; conditions: 3126
Outline: as §1

E. coli [3] = test: MIC of antibiotic during combined treatment with antimicrobial peptide; assay type: cell-based, Escherichia coli; conditions: for Antibiotic MIC, Erythromycin / Antibiotic MIC, Linezolid / Antibiotic MIC, Vancomycin: E. coli
Outline: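 Checkerboard-type MIC of peptide–antibiotic mixtures in MH medium: the antibiotic was serially diluted in MH medium and added to wells, then the reversed arrangement was also tested.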

MDREC 1229 [4] = test: as above; assay type: cell-based, Escherichia coli
Outline: (§2)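 Strains in MH medium at 2×10^6 CFU/ml were mixed with peptide diluted stepwise (2:1) from its MIC, then antibiotic dilutions in MH medium were added to give the antibiotic MIC. The reversed set-up, peptide titrated against fixed antibiotic, gave the peptide MIC.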

A. baumannii = test: MIC of antimicrobial peptide during combined treatment with antibiotic; assay type: cell-based, Acinetobacter baumannii
Outline: as §2

MDRAB 12035 = test: as above; assay type: cell-based, Acinetobacter baumannii
Outline: as §2

[5] = peptide treatment concentration 1 μg/ml
[6] = peptide treatment concentration 2 μg/ml
[7] = peptide treatment concentration 4 μg/ml
[8] = peptide treatment concentration 6 μg/ml
[9] = peptide treatment concentration 8 μg/ml
[10] = peptide treatment concentration 16 μg/ml
[11] = peptide treatment concentration 32 μg/ml
[12] = peptide treatment concentration 64 μg/ml
[13] = erythromycin 4 μg/ml (Conc./MIC 1/8)
[14] = erythromycin 8 μg/ml (Conc./MIC 1/4)
[15] = erythromycin 16 μg/ml (Conc./MIC 1/2)
[16] = erythromycin 32 μg/ml (Conc./MIC 1)
[17] = vancomycin 512 μg/ml (Conc./MIC 1/2)
[18] = vancomycin 1024 μg/ml (Conc./MIC 1)

Compound: CC[C@H](C)[C@H](NC(=O)[C@H](CCCCN)NC(=O)[C@H](Cc1c[nH]c2ccccc12)NC(=O)[C@@H](N)CCCNC(=N)N)C(=O)N[C@@H](Cc1ccccc1)C(=O)N[C@@H](CCCCN)C(=O)N[C@@H](CCCCN)C(=O)N[C@H](C(=O)N[C@H](CC(C)C)C(=O)N[C@@H](CCCCN)C(=O)N[C@@H](CC(C)C)C(=O)N[C@@H](CC(C)C)C(=O)N[C@@H](Cc1c[nH]cn1)C(=O)N[C@@H](CCC(=O)O)C(=O)N[C@@H](C)C(=O)N[C@@H](CCCCN)C(=O)N[C@@H](CCCCN)C(=O)N[C@@H](Cc1c[nH]c2ccccc12)C(N)=O)[C@@H](C)CC [PapMA-24, RWK IFK KIl KLL HEA KKW-NH2] (H-RWKIFKKI[dL]KLLHEAKKW-NH2; N-terminus assumed)
- Minimal inhibitory concentration MIC (E. coli [1]): 32 µg/mL (≈ 13.5 µM)
- Minimal inhibitory concentration MIC (MDREC 1229 [2]): 32 µg/mL (≈ 13.5 µM)
- Peptide MIC, peptide alone (MDREC 1229 [2]): 32 µg/mL
- Minimal inhibitory concentration MIC (MDREC 1238): 32 µg/mL (≈ 13.5 µM)
- Minimal inhibitory concentration MIC (P. aeruginosa): 64 µg/mL (≈ 27.1 µM)
- Minimal inhibitory concentration MIC (MDRAB 12036): 32 µg/mL (≈ 13.5 µM)
- Minimal inhibitory concentration MIC (S. typhimurium): 32 µg/mL (≈ 13.5 µM)
- Minimal inhibitory concentration MIC (MDRST 8007): 32 µg/mL (≈ 13.5 µM)
- Minimal inhibitory concentration MIC (MDRST 8009): 32 µg/mL (≈ 13.5 µM)
- Minimal inhibitory concentration MIC (S. epidermidis): >128 µg/mL
- Minimal inhibitory concentration MIC (S. aureus): >128 µg/mL
- Minimal inhibitory concentration MIC (MRSA 3114): >128 µg/mL
- Minimal inhibitory concentration MIC (MRSA 3126): >128 µg/mL
- Synergistic effect of antibacterial activity with existing antibiotics compared with PapMA-1 (E. coli [3]; E. coli and MDREC1229): level similar to that of the PapMA-1 peptide
- Antibiotic MIC, Erythromycin (E. coli [3]; erythromycin combined with peptide at 1 μg/ml): 64 µg/mL
- Antibiotic MIC, Erythromycin (E. coli [3]; erythromycin combined with peptide at 2 μg/ml): 32 µg/mL
- Antibiotic MIC, Erythromycin (E. coli [3]; erythromycin combined with peptide at 4 μg/ml): 16 µg/mL
- Antibiotic MIC, Erythromycin (E. coli [3]; erythromycin combined with peptide at 6 μg/ml): 4 µg/mL
- Antibiotic MIC, Erythromycin (E. coli [3]; erythromycin combined with peptide at 8 μg/ml): 2 µg/mL
- Antibiotic MIC, Erythromycin (E. coli [3]; erythromycin combined with peptide at 16 μg/ml): 0.5 µg/mL
- Antibiotic MIC, Erythromycin (E. coli [3]; erythromycin combined with peptide at 32 μg/ml): 0 µg/mL
- Antibiotic MIC, Erythromycin (E. coli [3]; erythromycin combined with peptide at 64 μg/ml): 0 µg/mL
- Antibiotic MIC, Linezolid (E. coli [3]; linezolid combined with peptide at 1 μg/ml): >128 µg/mL
- Antibiotic MIC, Linezolid (E. coli [3]; linezolid combined with peptide at 2 μg/ml): 128 µg/mL
- Antibiotic MIC, Linezolid (E. coli [3]; linezolid combined with peptide at 4 μg/ml): 64 µg/mL
- Antibiotic MIC, Linezolid (E. coli [3]; linezolid combined with peptide at 6 μg/ml): 32 µg/mL
- Antibiotic MIC, Linezolid (E. coli [3]; linezolid combined with peptide at 8 μg/ml): 32 µg/mL
- Antibiotic MIC, Linezolid (E. coli [3]; linezolid combined with peptide at 16 μg/ml): 8 µg/mL
- Antibiotic MIC, Linezolid (E. coli [3]; linezolid combined with peptide at 32 μg/ml): 0 µg/mL
- Antibiotic MIC, Linezolid (E. coli [3]; linezolid combined with peptide at 64 μg/ml): 0 µg/mL
- Antibiotic MIC, Vancomycin (E. coli [3]; vancomycin combined with peptide at 1 μg/ml): >128 µg/mL
- Antibiotic MIC, Vancomycin (E. coli [3]; vancomycin combined with peptide at 2 μg/ml): >128 µg/mL
- Antibiotic MIC, Vancomycin (E. coli [3]; vancomycin combined with peptide at 4 μg/ml): 128 µg/mL
- Antibiotic MIC, Vancomycin (E. coli [3]; vancomycin combined with peptide at 6 μg/ml): 32 µg/mL
- Antibiotic MIC, Vancomycin (E. coli [3]; vancomycin combined with peptide at 8 μg/ml): 16 µg/mL
- Antibiotic MIC, Vancomycin (E. coli [3]; vancomycin combined with peptide at 16 μg/ml): 8 µg/mL
- Antibiotic MIC, Vancomycin (E. coli [3]; vancomycin combined with peptide at 32 μg/ml): 0 µg/mL
- Antibiotic MIC, Vancomycin (E. coli [3]; vancomycin combined with peptide at 64 μg/ml): 0 µg/mL
- Antibiotic MIC, Erythromycin (MDREC 1229 [4]; [5]): 128 µg/mL
- Antibiotic MIC, Linezolid (MDREC 1229 [4]; [5]): >128 µg/mL
- Antibiotic MIC, Vancomycin (MDREC 1229 [4]; [5]): >128 µg/mL
- Antibiotic MIC, Erythromycin (MDREC 1229 [4]; [6]): 64 µg/mL
- Antibiotic MIC, Linezolid (MDREC 1229 [4]; [6]): 128 µg/mL
- Antibiotic MIC, Vancomycin (MDREC 1229 [4]; [6]): >128 µg/mL
- Antibiotic MIC, Erythromycin (MDREC 1229 [4]; [7]): 32 µg/mL
- Antibiotic MIC, Linezolid (MDREC 1229 [4]; [7]): 64 µg/mL
- Antibiotic MIC, Vancomycin (MDREC 1229 [4]; [7]): >128 µg/mL
- Antibiotic MIC, Erythromycin (MDREC 1229 [4]; [8]): 8 µg/mL
- Antibiotic MIC, Linezolid (MDREC 1229 [4]; [8]): 64 µg/mL
- Antibiotic MIC, Vancomycin (MDREC 1229 [4]; [8]): 64 µg/mL
- Antibiotic MIC, Erythromycin (MDREC 1229 [4]; [9]): 2 µg/mL
- Antibiotic MIC, Linezolid (MDREC 1229 [4]; [9]): 32 µg/mL
- Antibiotic MIC, Vancomycin (MDREC 1229 [4]; [9]): 32 µg/mL
- Antibiotic MIC, Erythromycin (MDREC 1229 [4]; [10]): 1 µg/mL
- Antibiotic MIC, Linezolid (MDREC 1229 [4]; [10]): 8 µg/mL
- Antibiotic MIC, Vancomycin (MDREC 1229 [4]; [10]): 16 µg/mL
- Antibiotic MIC, Erythromycin (MDREC 1229 [4]; [11]): 0 µg/mL
- Antibiotic MIC, Linezolid (MDREC 1229 [4]; [11]): 0 µg/mL
- Antibiotic MIC, Vancomycin (MDREC 1229 [4]; [11]): 0 µg/mL
- Antibiotic MIC, Erythromycin (MDREC 1229 [4]; [12]): 0 µg/mL
- Antibiotic MIC, Linezolid (MDREC 1229 [4]; [12]): 0 µg/mL
- Antibiotic MIC, Vancomycin (MDREC 1229 [4]; [12]): 0 µg/mL
- Peptide MIC during treatment with erythromycin (A. baumannii; [13]): 8 µg/mL
- Peptide MIC during treatment with erythromycin (A. baumannii; [14]): 4 µg/mL
- Peptide MIC during treatment with erythromycin (A. baumannii; [15]): 4 µg/mL
- Peptide MIC during treatment with erythromycin (A. baumannii; [16]): 0 µg/mL
- Peptide MIC during treatment with linezolid (A. baumannii; linezolid 32 μg/ml (Conc./MIC 1/8)): 8 µg/mL
- Peptide MIC during treatment with linezolid (A. baumannii; linezolid 64 μg/ml (Conc./MIC 1/4)): 4 µg/mL
- Peptide MIC during treatment with linezolid (A. baumannii; linezolid […] (Conc./MIC 1)): 0 µg/mL
- Peptide MIC during treatment with linezolid (A. baumannii; linezolid […] (Conc./MIC 1/2)): 1 µg/mL
- Peptide MIC during treatment with vancomycin (A. baumannii; [17]): 0.25 µg/mL
- Peptide MIC during treatment with vancomycin (A. baumannii; [18]): 0 µg/mL
- Peptide MIC during treatment with vancomycin (A. baumannii; vancomycin […] (Conc./MIC 1/4)): 0.5 µg/mL
- Peptide MIC during treatment with vancomycin (A. baumannii; vancomycin […] (Conc./MIC 1/8)): 2 µg/mL
- Peptide MIC during treatment with erythromycin (MDRAB 12035; [13]): 8 µg/mL
- Peptide MIC during treatment with erythromycin (MDRAB 12035; [14]): 8 µg/mL
- Peptide MIC during treatment with erythromycin (MDRAB 12035; [15]): 4 µg/mL
- Peptide MIC during treatment with erythromycin (MDRAB 12035; [16]): 0 µg/mL
- Peptide MIC during treatment with linezolid (MDRAB 12035; linezolid 64 μg/ml (Conc./MIC 1/8)): 4 µg/mL
- Peptide MIC during treatment with linezolid (MDRAB 12035; linezolid 512 μg/ml (Conc./MIC 1)): 0 µg/mL
- Peptide MIC during treatment with linezolid (MDRAB 12035; linezolid […] (Conc./MIC 1/2)): 1 µg/mL
- Peptide MIC during treatment with linezolid (MDRAB 12035; linezolid […] (Conc./MIC 1/4)): 4 µg/mL
- Peptide MIC during treatment with vancomycin (MDRAB 12035; [17]): 2 µg/mL
- Peptide MIC during treatment with vancomycin (MDRAB 12035; [18]): 1 µg/mL
- Peptide MIC during treatment with vancomycin (MDRAB 12035; vancomycin […] (Conc./MIC 1/4)): 4 µg/mL
- Peptide MIC during treatment with vancomycin (MDRAB 12035; vancomycin […] (Conc./MIC 1/8)): 4 µg/mL
